The molecules below were run against T1, CB1 cannabinoid receptor (Rattus norvegicus, UniProt P20272) (assay: CB1 receptor binding, rat forebrain membranes, [3H] CP-55,940 displacement). Details: rat forebrain membranes, 0.8 nM [3H] CP-55,940; read-out: affinities Ki CB1.
T1 construct: membranes were prepared from rat forebrain membranes; from tissue; host or cells: rat forebrain
T1 sequence (P20272 whole entry): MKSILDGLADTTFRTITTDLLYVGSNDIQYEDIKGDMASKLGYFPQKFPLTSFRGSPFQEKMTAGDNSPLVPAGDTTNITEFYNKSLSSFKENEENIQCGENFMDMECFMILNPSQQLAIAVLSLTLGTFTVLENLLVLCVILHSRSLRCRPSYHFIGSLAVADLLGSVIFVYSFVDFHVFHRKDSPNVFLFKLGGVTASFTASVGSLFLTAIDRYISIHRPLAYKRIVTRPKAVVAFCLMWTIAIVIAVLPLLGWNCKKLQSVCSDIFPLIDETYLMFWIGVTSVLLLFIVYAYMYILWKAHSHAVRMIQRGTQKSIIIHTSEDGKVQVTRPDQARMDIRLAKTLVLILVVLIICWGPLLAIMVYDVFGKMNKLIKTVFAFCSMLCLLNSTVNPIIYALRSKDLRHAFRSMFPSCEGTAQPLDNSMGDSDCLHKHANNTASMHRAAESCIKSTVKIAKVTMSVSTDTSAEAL
Description: Some of the inventive analogs were tested for CB2 receptor binding affinity and for CB1 receptor affinity (to determine selectivity). […] The lower the Ki value the higher the binding affinity. […]
Membranes, previously frozen at −80° C., were thawed on ice. To the stirred suspension was added three volumes of TME (25 mM Tris-HCl buffer, 5 mM MgCl2 and 1 mM EDTA) at a pH 7.4. The suspension was incubated at 4° C. for 30 min. At the end of the incubation, the membranes were pelleted and washed three times with TME.
(§1) The treated membranes were subsequently used in the binding assay described below. Approximately 30 μg of membranes were incubated in silanized 96-well microtiter plate with TME containing 0.1% essentially fatty acid-free bovine serum albumin (BSA), 0.8 nM [^3H] […] Radioactivity was detected using MicroScint 20 scintillation cocktail added directly to the dried filterplates, and the filterplates were counted using a Packard Instruments Top-Count. […] Data collected from three independent experiments performed with duplicate determinations was normalized between 100% and 0% specific binding for [^3H] […] The normalized data was analyzed using a 4-parameter nonlinear logistic equation to yield IC50 values.
Molecule `Cc1c(C=Cc2ccccc2)nn(-c2ccc(Cl)cc2Cl)c1-c1ccc(Br)cc1` [Compound 1-24] has a Ki of 0.141 µM.
Work on `Cc1c(C=CC23CC4CC(CC(C4)C2)C3)nn(-c2ccc(Cl)cc2Cl)c1-c1ccc(Br)cc1` [Compound 1-25] yielded a Ki of 17.7 µM.
`CCCCCC=Cc1nn(-c2ccc(Cl)cc2Cl)c(-c2ccc(Br)cc2)c1C` [Compound 1-26] gave a Ki of 7.68 µM.
`Cc1c(CCC2CCCCC2)nn(-c2ccc(Cl)cc2Cl)c1-c1ccc(Br)cc1` [Compound 1-27] gave a Ki of 1.04 µM.
Molecule `Cc1c(C(O)C(O)c2ccccc2)nn(-c2ccc(Cl)cc2Cl)c1-c1ccc(Br)cc1` (stereo not drawn) [Compound 1-28] has a Ki of 1.07 µM.
Work on `Cc1c(C(=O)NN2CCCCC2)nn(-c2ccc(Cl)cc2Cl)c1-c1ccc(-c2nnn[nH]2)cc1` [Compound 2-1] yielded a Ki of 0.455 µM.
Molecule `Cc1c(C(=O)NN2CCCCC2)nn(-c2ccc(Cl)cc2Cl)c1-c1ccc(-c2nnnn2C)cc1` [Compound 2-2] has a Ki of 0.09 µM.
Work on `Cc1c(C(=O)NN2CCCCC2)nn(-c2ccc(Cl)cc2Cl)c1-c1ccc(-c2nnn(C)n2)cc1` [Compound 2-3] yielded a Ki of 0.006 µM.
Molecule `O=C(NN1CCCCC1)c1nn(-c2ccc(Cl)cc2Cl)c(-c2ccc(-c3nnn[nH]3)cc2)c1CO` [Compound 2-4] has a Ki of 1.84 µM.
Work on `Cn1nnnc1-c1ccc(-c2c(CO)c(C(=O)NN3CCCCC3)nn2-c2ccc(Cl)cc2Cl)cc1` [Compound 2-5] yielded a Ki of 0.203 µM.
`Cn1nnc(-c2ccc(-c3c(CO)c(C(=O)NN4CCCCC4)nn3-c3ccc(Cl)cc3Cl)cc2)n1` [Compound 2-6] showed a Ki of 0.018 µM.
For `Cc1c(C(=O)NC2CCCCC2)nn(-c2ccc(Cl)cc2Cl)c1-c1ccc(-c2nnnn2C)cc1` [Compound 2-8], the Ki was 0.12 µM.
In the case of `Cc1c(C(=O)NC2CCCCC2)nn(-c2ccc(Cl)cc2Cl)c1-c1ccc(-c2nnn(C)n2)cc1` [Compound 2-9], the Ki is reported as 0.02 µM.
`O=C(NC1CCCCC1)c1nn(-c2ccc(Cl)cc2Cl)c(-c2ccc(-c3nnn[nH]3)cc2)c1CO` [Compound 2-10] gave a Ki of 0.192 µM.
`Cn1nnnc1-c1ccc(-c2c(CO)c(C(=O)NC3CCCCC3)nn2-c2ccc(Cl)cc2Cl)cc1` [Compound 2-11] showed a Ki of 0.118 µM.
With `Cn1nnc(-c2ccc(-c3c(CO)c(C(=O)NC4CCCCC4)nn3-c3ccc(Cl)cc3Cl)cc2)n1` [Compound 2-12] the Ki was 0.037 µM.
In the case of `Cc1c(C(=O)N(C)C2CCCCC2)nn(-c2ccc(Cl)cc2Cl)c1-c1ccc(-c2nnnn2C)cc1` [Compound 2-14], the Ki is reported as 1.27 µM.
With `Cc1c(C(=O)N(C)C2CCCCC2)nn(-c2ccc(Cl)cc2Cl)c1-c1ccc(-c2nnn(C)n2)cc1` [Compound 2-15] the Ki was 0.105 µM.
For `CN(C(=O)c1nn(-c2ccc(Cl)cc2Cl)c(-c2ccc(-c3nnn[nH]3)cc2)c1CO)C1CCCCC1` [Compound 2-16], the Ki was 0.293 µM.
`CN(C(=O)c1nn(-c2ccc(Cl)cc2Cl)c(-c2ccc(-c3nnnn3C)cc2)c1CO)C1CCCCC1` [Compound 2-17] showed a Ki of 1.08 µM.
`CN(C(=O)c1nn(-c2ccc(Cl)cc2Cl)c(-c2ccc(-c3nnn(C)n3)cc2)c1CO)C1CCCCC1` [Compound 2-18] showed a Ki of 0.21 µM.
`O=C(Nc1nn(-c2ccc(Cl)cc2Cl)c(-c2ccc(Br)cc2)c1CO)NC1CCCCC1` [Compound 2-19] showed a Ki of 0.009 µM.
Molecule `CN(C(=O)Nc1nn(-c2ccc(Cl)cc2Cl)c(-c2ccc(Br)cc2)c1CO)C1CCCCC1` [Compound 2-21] has a Ki of 0.296 µM.

Same assay, conditions: ratio of CB2 Ki to CB1 Ki
With `Cc1c(C=Cc2ccccc2)nn(-c2ccc(Cl)cc2Cl)c1-c1ccc(Br)cc1` [Compound 1-24] the “selectivity CB1” value was 75.0.
In the case of `CCCCCC=Cc1nn(-c2ccc(Cl)cc2Cl)c(-c2ccc(Br)cc2)c1C` [Compound 1-26], the “selectivity CB1” value is reported as 6.9.
For `Cc1c(CCC2CCCCC2)nn(-c2ccc(Cl)cc2Cl)c1-c1ccc(Br)cc1` [Compound 1-27], the “selectivity CB1” value was 25.3.
In the case of `Cc1c(C(O)C(O)c2ccccc2)nn(-c2ccc(Cl)cc2Cl)c1-c1ccc(Br)cc1` (stereo not drawn) [Compound 1-28], the “selectivity CB1” value is reported as 3.7.
`Cc1c(C(=O)NN2CCCCC2)nn(-c2ccc(Cl)cc2Cl)c1-c1ccc(-c2nnn[nH]2)cc1` [Compound 2-1] was tested, and the “selectivity CB1” value was 1.5.
In the case of `Cc1c(C(=O)NN2CCCCC2)nn(-c2ccc(Cl)cc2Cl)c1-c1ccc(-c2nnnn2C)cc1` [Compound 2-2], the “selectivity CB1” value is reported as 2.7.
In the case of `Cc1c(C(=O)NN2CCCCC2)nn(-c2ccc(Cl)cc2Cl)c1-c1ccc(-c2nnn(C)n2)cc1` [Compound 2-3], the “selectivity CB1” value is reported as 86.2.
With `O=C(NN1CCCCC1)c1nn(-c2ccc(Cl)cc2Cl)c(-c2ccc(-c3nnn[nH]3)cc2)c1CO` [Compound 2-4] the “selectivity CB1” value was 7.4.
`Cn1nnnc1-c1ccc(-c2c(CO)c(C(=O)NN3CCCCC3)nn2-c2ccc(Cl)cc2Cl)cc1` [Compound 2-5] was tested, and the “selectivity CB1” value was 10.5.
`Cn1nnc(-c2ccc(-c3c(CO)c(C(=O)NN4CCCCC4)nn3-c3ccc(Cl)cc3Cl)cc2)n1` [Compound 2-6] was tested, and the “selectivity CB1” value was 120.5.
For `Cc1c(C(=O)NC2CCCCC2)nn(-c2ccc(Cl)cc2Cl)c1-c1ccc(-c2nnnn2C)cc1` [Compound 2-8], the “selectivity CB1” value was 8.9.
For `Cc1c(C(=O)NC2CCCCC2)nn(-c2ccc(Cl)cc2Cl)c1-c1ccc(-c2nnn(C)n2)cc1` [Compound 2-9], the “selectivity CB1” value was 19.
For `O=C(NC1CCCCC1)c1nn(-c2ccc(Cl)cc2Cl)c(-c2ccc(-c3nnn[nH]3)cc2)c1CO` [Compound 2-10], the “selectivity CB1” value was 2.4.
`Cn1nnnc1-c1ccc(-c2c(CO)c(C(=O)NC3CCCCC3)nn2-c2ccc(Cl)cc2Cl)cc1` [Compound 2-11] was tested, and the “selectivity CB1” value was 1.
`Cn1nnc(-c2ccc(-c3c(CO)c(C(=O)NC4CCCCC4)nn3-c3ccc(Cl)cc3Cl)cc2)n1` [Compound 2-12] was tested, and the “selectivity CB1” value was 1.
In the case of `Cc1c(C(=O)N(C)C2CCCCC2)nn(-c2ccc(Cl)cc2Cl)c1-c1ccc(-c2nnn(C)n2)cc1` [Compound 2-15], the “selectivity CB1” value is reported as 5.2.
For `CN(C(=O)c1nn(-c2ccc(Cl)cc2Cl)c(-c2ccc(-c3nnn[nH]3)cc2)c1CO)C1CCCCC1` [Compound 2-16], the “selectivity CB1” value was 3.8.
With `CN(C(=O)c1nn(-c2ccc(Cl)cc2Cl)c(-c2ccc(-c3nnnn3C)cc2)c1CO)C1CCCCC1` [Compound 2-17] the “selectivity CB1” value was 1.3.
With `CN(C(=O)c1nn(-c2ccc(Cl)cc2Cl)c(-c2ccc(-c3nnn(C)n3)cc2)c1CO)C1CCCCC1` [Compound 2-18] the “selectivity CB1” value was 3.0.
`O=C(Nc1nn(-c2ccc(Cl)cc2Cl)c(-c2ccc(Br)cc2)c1CO)NC1CCCCC1` [Compound 2-19] was tested, and the “selectivity CB1” value was 546.7.
`CN(C(=O)Nc1nn(-c2ccc(Cl)cc2Cl)c(-c2ccc(Br)cc2)c1CO)C1CCCCC1` [Compound 2-21] was tested, and the “selectivity CB1” value was 15.1.

These molecules were tested against T2, CB2 receptor (Mus musculus, UniProt P47936) (assay: CB2 receptor binding, mouse spleen membranes, same manner as the CB1 binding assay). Details: affinities Ki CB2, mouse spleen membranes, [3H] CP-55,940.
T2 construct: membranes were prepared from frozen mouse spleen; from tissue; host or cells: mouse spleen
T2 sequence (P47936 whole entry): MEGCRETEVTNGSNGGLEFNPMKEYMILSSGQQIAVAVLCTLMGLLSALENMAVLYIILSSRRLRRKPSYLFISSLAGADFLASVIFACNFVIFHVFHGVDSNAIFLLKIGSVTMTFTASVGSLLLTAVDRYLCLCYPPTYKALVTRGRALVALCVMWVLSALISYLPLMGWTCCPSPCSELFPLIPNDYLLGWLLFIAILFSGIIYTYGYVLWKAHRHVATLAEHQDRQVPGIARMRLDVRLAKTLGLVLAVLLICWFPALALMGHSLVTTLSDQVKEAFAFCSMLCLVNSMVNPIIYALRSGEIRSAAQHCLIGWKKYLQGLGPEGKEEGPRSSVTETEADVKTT
Description: Some of the inventive analogs were tested for CB2 receptor binding affinity and for CB1 receptor affinity (to determine selectivity). […] The lower the Ki value the higher the binding affinity.
as §1
Silanized centrifuge tubes were used throughout to minimize receptor loss due to adsorption. The CB2 binding assay was conducted in the same manner as for the CB1 binding assay. The binding affinities (Ki) were also expressed in nanomoles (nM).
Work on `CCCCCC=Cc1nn(-c2ccc(Cl)cc2Cl)c(-c2ccc(Br)cc2)c1C` [Compound 1-26] yielded a Ki of 52.9 µM.
`Cc1c(C(O)C(O)c2ccccc2)nn(-c2ccc(Cl)cc2Cl)c1-c1ccc(Br)cc1` (stereo not drawn) [Compound 1-28] was tested, and the Ki was 3.93 µM.

Same assay, conditions: mouse spleen membranes, [3H] CP-55,940; read-out: affinities Ki CB2
`Cc1c(C=Cc2ccccc2)nn(-c2ccc(Cl)cc2Cl)c1-c1ccc(Br)cc1` [Compound 1-24] showed a Ki of 10.6 µM.
Molecule `Cc1c(C=CC23CC4CC(CC(C4)C2)C3)nn(-c2ccc(Cl)cc2Cl)c1-c1ccc(Br)cc1` [Compound 1-25] has a Ki of 4.01 µM.
For `Cc1c(CCC2CCCCC2)nn(-c2ccc(Cl)cc2Cl)c1-c1ccc(Br)cc1` [Compound 1-27], the Ki was 26.4 µM.
`Cc1c(C(=O)NN2CCCCC2)nn(-c2ccc(Cl)cc2Cl)c1-c1ccc(-c2nnn[nH]2)cc1` [Compound 2-1] gave a Ki of 0.702 µM.
`Cc1c(C(=O)NN2CCCCC2)nn(-c2ccc(Cl)cc2Cl)c1-c1ccc(-c2nnnn2C)cc1` [Compound 2-2] gave a Ki of 0.242 µM.
`Cc1c(C(=O)NN2CCCCC2)nn(-c2ccc(Cl)cc2Cl)c1-c1ccc(-c2nnn(C)n2)cc1` [Compound 2-3] was tested, and the Ki was 0.517 µM.
`O=C(NN1CCCCC1)c1nn(-c2ccc(Cl)cc2Cl)c(-c2ccc(-c3nnn[nH]3)cc2)c1CO` [Compound 2-4] gave a Ki of 13.6 µM.
`Cn1nnnc1-c1ccc(-c2c(CO)c(C(=O)NN3CCCCC3)nn2-c2ccc(Cl)cc2Cl)cc1` [Compound 2-5] was tested, and the Ki was 2.13 µM.
Work on `Cn1nnc(-c2ccc(-c3c(CO)c(C(=O)NN4CCCCC4)nn3-c3ccc(Cl)cc3Cl)cc2)n1` [Compound 2-6] yielded a Ki of 2.17 µM.
With `Cc1c(C(=O)NC2CCCCC2)nn(-c2ccc(Cl)cc2Cl)c1-c1ccc(-c2nnnn2C)cc1` [Compound 2-8] the Ki was 1.07 µM.
For `Cc1c(C(=O)NC2CCCCC2)nn(-c2ccc(Cl)cc2Cl)c1-c1ccc(-c2nnn(C)n2)cc1` [Compound 2-9], the Ki was 0.381 µM.
For `O=C(NC1CCCCC1)c1nn(-c2ccc(Cl)cc2Cl)c(-c2ccc(-c3nnn[nH]3)cc2)c1CO` [Compound 2-10], the Ki was 0.463 µM.
Work on `Cn1nnnc1-c1ccc(-c2c(CO)c(C(=O)NC3CCCCC3)nn2-c2ccc(Cl)cc2Cl)cc1` [Compound 2-11] yielded a Ki of 0.122 µM.
In the case of `Cn1nnc(-c2ccc(-c3c(CO)c(C(=O)NC4CCCCC4)nn3-c3ccc(Cl)cc3Cl)cc2)n1` [Compound 2-12], the Ki is reported as 0.0365 µM.
With `Cc1c(C(=O)N(C)C2CCCCC2)nn(-c2ccc(Cl)cc2Cl)c1-c1ccc(-c2nnnn2C)cc1` [Compound 2-14] the Ki was 0.941 µM.
Work on `Cc1c(C(=O)N(C)C2CCCCC2)nn(-c2ccc(Cl)cc2Cl)c1-c1ccc(-c2nnn(C)n2)cc1` [Compound 2-15] yielded a Ki of 0.551 µM.
In the case of `CN(C(=O)c1nn(-c2ccc(Cl)cc2Cl)c(-c2ccc(-c3nnn[nH]3)cc2)c1CO)C1CCCCC1` [Compound 2-16], the Ki is reported as 1.12 µM.
For `CN(C(=O)c1nn(-c2ccc(Cl)cc2Cl)c(-c2ccc(-c3nnnn3C)cc2)c1CO)C1CCCCC1` [Compound 2-17], the Ki was 1.41 µM.
`CN(C(=O)c1nn(-c2ccc(Cl)cc2Cl)c(-c2ccc(-c3nnn(C)n3)cc2)c1CO)C1CCCCC1` [Compound 2-18] gave a Ki of 0.641 µM.
`O=C(Nc1nn(-c2ccc(Cl)cc2Cl)c(-c2ccc(Br)cc2)c1CO)NC1CCCCC1` [Compound 2-19] showed a Ki of 4.92 µM.
In the case of `CN(C(=O)Nc1nn(-c2ccc(Cl)cc2Cl)c(-c2ccc(Br)cc2)c1CO)C1CCCCC1` [Compound 2-21], the Ki is reported as 4.47 µM.

Same assay, conditions: ratio of CB1 Ki to CB2 Ki
`Cc1c(C=CC23CC4CC(CC(C4)C2)C3)nn(-c2ccc(Cl)cc2Cl)c1-c1ccc(Br)cc1` [Compound 1-25] was tested, and the “selectivity CB2” value was 4.4.
With `Cc1c(C(=O)N(C)C2CCCCC2)nn(-c2ccc(Cl)cc2Cl)c1-c1ccc(-c2nnnn2C)cc1` [Compound 2-14] the “selectivity CB2” value was 1.4.

Reference: patent US8084467B2, “Pyrazole derivatives as cannabinoid receptor antagonists” (University of Connecticut, priority 2004, dated 2011)
